Reference: patent US20210253651A1, “METHOD FOR PRODUCING ORGANIC COMPOUND-ENCAPSULATING FERRITIN” (Ajinomoto Co., Inc., priority 2018, published 2021)
Where a name gives a salt, the structure may show the parent alone. Read-outs that look alike come from different tables or passages of the source.

Experiments:
FTH ferritin = molecular target: T1, FTH ferritin (Homo sapiens, UniProt P02794); assay: one-step process incorporation of small molecule agents into FTH ferritin; format: physicochemical; conditions: pH of buffer giving the largest amount of incorporation within ferritin
T1 construct: made in house; host or cells: Escherichia coli BL21 (DE3), plasmid pET20-FTH
Protocol: All of the reactions were performed in 0.1 mL volume. […] The absorbances were measured using spectrophotometer (DU-800, Beckman Coulter Inc.) for these solutions, and the concentration of contained protein was determined using the protein assay CBB solution (Nacalai Tesque, Inc.) as well as bovine albumin as a standard. Absorbances at 280 nm and 480 nm were measured for Rhodamine B and Congo Red. […] Then, after the absorbances were calibrated based on the absorbances that were derived from the proteins and presumed by the amount of contained protein quantified using the protein assay CBB solution, the concentrations of small molecule agents were determined based on the calibration curves obtained by the absorbances of the molecules. […] As a result, the one-step process enabled incorporating also the small molecule agents with different physical properties such as molecular weight and pKa simply and easily.

[1] = cited from earlier work
FTH-BC-TBP ferritin = assay: one-step incorporation of DOX into mutant ferritin FTH-BC-TBP; format: physicochemical, human; conditions: pH 8, 50° C., 60 minutes, DOX 0.3 mg/L
Protocol: Total synthesis was carried out for a DNA encoding a human-derived ferritin H chain (FTH-BC-TBP) monomer in which a titanium recognizing peptide (minTBP1: RKLPDA (SEQ ID NO: 7)) was inserted for fusion at a flexible linker region between second and third α-helices counted from an N-terminus of a ferritin monomer comprising six α-helices. PCR was carried out using the synthesized DNA as a template as well as the following primers: 5′-[…]-3′ (SEQ ID NO: 8) and 5′-[…]-3′ (SEQ ID NO: 9). PCR was carried out using pET20 (Merck KGaA) as a template as well as the following primers: 5′-[…]-3′ (SEQ ID NO: 10) and 5′-[…]-3′ (SEQ ID NO: 11). […]
DOX was mixed with 1 mL of 50 mM Tris-HCl buffer (pH 8) that contains each mutate ferritin at a final concentration of 1 mg/mL, to achieve a final concentration of 0.3 mg/L, and then the resulting solutions were left to stand at 50° C. for 60 minutes. […] The concentration of contained protein was determined using the protein assay CBB solution (Nacalai Tesque, Inc.) as well as bovine albumin as a standard. The DOX concentration was determined based on analysis of the absorbance at 480 nm.

T1 sequence (P02794 whole entry): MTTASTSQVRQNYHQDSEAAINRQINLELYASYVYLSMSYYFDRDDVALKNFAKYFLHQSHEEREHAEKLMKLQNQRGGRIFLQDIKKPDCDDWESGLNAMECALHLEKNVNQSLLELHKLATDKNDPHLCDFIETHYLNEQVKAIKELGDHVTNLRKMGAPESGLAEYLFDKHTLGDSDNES

## COc1cccc2c1C(=O)c1c(O)c3c(c(O)c1C2=O)C[C@@](O)(C(=O)CO)C[C@@H]3OC1CC(N)C(O)C(C)O1 (some centres unmarked) [DOX, Doxorubicin hydrochloride]
FTH ferritin
  Optimal pH in reaction: 9
[1]; second pKa value
  pKa: 8.46
[1]; single or first pKa value
  pKa: 7.34
[1]; third printed pKa value
  pKa: 9.46
FTH-BC-TBP ferritin
  incorporation efficiency of the reagent: 6.5 % (wt)
